Results taken from paper PMC5224880, “Discovery and Molecular Basis of a Diverse Set of Polycomb Repressive Complex 2 Inhibitors Recognition by EED” (PLoS ONE, 2017).

Key:
Type in all cases: biochemical
NSD3 = molecular target: T1, NSD3 (Homo sapiens, UniProt Q9BZ95); assay: HMT panel selectivity: NSD3
T1 sequence (Q9BZ95 1-1437): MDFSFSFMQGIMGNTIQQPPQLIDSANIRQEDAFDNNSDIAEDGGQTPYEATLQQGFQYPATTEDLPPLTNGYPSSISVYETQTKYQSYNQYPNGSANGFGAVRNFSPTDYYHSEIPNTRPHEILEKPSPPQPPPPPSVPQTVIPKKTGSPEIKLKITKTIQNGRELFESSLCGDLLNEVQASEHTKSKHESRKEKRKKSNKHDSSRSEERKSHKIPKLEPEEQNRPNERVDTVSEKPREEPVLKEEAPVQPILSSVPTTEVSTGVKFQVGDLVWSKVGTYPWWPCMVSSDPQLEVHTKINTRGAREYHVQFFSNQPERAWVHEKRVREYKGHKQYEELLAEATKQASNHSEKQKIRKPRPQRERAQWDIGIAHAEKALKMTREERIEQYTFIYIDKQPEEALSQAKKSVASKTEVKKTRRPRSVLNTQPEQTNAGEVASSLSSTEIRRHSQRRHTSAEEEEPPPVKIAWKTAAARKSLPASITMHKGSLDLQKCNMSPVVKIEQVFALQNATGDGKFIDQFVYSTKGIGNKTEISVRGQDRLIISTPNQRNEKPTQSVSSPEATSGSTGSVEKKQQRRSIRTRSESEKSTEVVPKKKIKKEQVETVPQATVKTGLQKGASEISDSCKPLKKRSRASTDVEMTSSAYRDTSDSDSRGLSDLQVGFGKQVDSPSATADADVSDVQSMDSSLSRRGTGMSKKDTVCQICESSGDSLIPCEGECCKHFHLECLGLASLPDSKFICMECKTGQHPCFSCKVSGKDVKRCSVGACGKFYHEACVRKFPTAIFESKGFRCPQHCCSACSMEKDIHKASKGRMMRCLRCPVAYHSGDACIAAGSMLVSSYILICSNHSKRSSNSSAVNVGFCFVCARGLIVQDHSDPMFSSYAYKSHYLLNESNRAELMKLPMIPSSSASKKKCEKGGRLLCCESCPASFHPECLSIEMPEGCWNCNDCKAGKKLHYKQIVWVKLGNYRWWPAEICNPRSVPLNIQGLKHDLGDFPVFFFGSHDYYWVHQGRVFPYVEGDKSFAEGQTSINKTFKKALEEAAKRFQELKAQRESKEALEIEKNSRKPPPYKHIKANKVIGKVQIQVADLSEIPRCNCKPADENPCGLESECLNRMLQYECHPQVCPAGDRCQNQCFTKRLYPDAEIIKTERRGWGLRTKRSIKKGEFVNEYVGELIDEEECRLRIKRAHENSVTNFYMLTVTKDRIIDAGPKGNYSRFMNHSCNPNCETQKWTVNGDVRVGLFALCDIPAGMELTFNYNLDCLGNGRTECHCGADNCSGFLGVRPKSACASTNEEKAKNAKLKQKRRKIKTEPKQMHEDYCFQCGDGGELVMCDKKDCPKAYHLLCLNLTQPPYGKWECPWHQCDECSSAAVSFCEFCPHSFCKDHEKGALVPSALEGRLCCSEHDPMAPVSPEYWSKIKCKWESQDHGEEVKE
Procedure: (§1) Note: for EZH2, EZH2/EED/SUZ12/RBAP48/AEBP2 was used in the assay; for EZH1, EZH1/EED/SUZ12/RBAP48/AEBP2 was used in the assay; for MLL, MLL/WDR5/RBBP5/ASH2L/ was use in the assay. a, H3K27me0 peptide was used as substrate for both EZH2 and EZH1 activity; b, H3K27me1 peptide was used as substrate for both EZH2 and EZH1 activity. All HMT reactions were performed as described previously. ref: Proc Natl Acad Sci U S A. 2012 Dec 26;109(52):21360-5.

ESET = ESET (Homo sapiens, UniProt Q15047); assay: HMT panel selectivity: ESET
Procedure: as §1

SMYD2 = SMYD2 (Homo sapiens, UniProt Q9NRG4); assay: HMT panel selectivity: SMYD2
Procedure: as §1

DNMT1 = DNMT1 (Homo sapiens, UniProt P26358); assay: HMT panel selectivity: DNMT1
Procedure: as §1

PRMT3 = PRMT3 (Homo sapiens, UniProt O60678); assay: HMT panel selectivity: PRMT3
Procedure: as §1

Chain of DNMT1 (P26358 whole entry, species assumed): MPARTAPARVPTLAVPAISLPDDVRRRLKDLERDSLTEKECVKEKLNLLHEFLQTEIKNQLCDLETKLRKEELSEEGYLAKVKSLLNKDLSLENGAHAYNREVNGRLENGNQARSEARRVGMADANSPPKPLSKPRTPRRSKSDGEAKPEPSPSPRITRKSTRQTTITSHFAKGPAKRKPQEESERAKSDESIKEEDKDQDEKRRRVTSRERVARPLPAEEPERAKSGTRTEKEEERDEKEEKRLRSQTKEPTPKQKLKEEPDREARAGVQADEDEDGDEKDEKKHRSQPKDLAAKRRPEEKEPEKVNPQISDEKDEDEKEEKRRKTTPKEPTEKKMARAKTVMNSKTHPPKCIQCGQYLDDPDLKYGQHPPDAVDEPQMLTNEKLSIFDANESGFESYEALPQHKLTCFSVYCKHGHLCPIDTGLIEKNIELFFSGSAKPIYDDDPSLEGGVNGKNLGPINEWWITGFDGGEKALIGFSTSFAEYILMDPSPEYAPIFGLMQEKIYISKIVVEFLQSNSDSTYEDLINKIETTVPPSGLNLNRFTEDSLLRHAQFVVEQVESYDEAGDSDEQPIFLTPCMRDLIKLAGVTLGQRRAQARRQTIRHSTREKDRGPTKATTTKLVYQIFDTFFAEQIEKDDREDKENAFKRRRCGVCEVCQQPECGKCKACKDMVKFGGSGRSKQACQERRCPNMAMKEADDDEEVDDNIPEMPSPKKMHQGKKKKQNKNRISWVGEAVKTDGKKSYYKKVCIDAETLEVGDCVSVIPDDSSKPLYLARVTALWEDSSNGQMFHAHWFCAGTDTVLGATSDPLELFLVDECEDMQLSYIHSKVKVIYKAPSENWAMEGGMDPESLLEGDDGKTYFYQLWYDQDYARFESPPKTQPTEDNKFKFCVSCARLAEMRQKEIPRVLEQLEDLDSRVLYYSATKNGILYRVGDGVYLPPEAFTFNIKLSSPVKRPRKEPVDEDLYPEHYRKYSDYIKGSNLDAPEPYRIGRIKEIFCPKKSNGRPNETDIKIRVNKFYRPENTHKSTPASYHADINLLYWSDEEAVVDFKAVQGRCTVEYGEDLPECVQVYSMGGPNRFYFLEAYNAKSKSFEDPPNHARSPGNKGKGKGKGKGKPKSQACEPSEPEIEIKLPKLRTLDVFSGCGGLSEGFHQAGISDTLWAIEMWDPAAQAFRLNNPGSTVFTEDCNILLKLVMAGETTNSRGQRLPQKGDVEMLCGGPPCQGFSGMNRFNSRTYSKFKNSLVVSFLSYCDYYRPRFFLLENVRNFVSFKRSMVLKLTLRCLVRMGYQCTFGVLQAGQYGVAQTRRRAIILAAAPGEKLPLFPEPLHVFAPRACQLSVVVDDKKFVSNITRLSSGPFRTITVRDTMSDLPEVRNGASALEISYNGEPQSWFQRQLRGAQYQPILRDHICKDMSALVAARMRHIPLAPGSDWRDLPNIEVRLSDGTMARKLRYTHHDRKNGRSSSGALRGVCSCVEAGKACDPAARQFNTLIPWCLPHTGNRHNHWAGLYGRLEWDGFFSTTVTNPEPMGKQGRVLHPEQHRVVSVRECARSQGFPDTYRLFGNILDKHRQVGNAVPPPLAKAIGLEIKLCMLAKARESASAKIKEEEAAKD
Chain of PRMT3 (O60678 whole entry, species assumed): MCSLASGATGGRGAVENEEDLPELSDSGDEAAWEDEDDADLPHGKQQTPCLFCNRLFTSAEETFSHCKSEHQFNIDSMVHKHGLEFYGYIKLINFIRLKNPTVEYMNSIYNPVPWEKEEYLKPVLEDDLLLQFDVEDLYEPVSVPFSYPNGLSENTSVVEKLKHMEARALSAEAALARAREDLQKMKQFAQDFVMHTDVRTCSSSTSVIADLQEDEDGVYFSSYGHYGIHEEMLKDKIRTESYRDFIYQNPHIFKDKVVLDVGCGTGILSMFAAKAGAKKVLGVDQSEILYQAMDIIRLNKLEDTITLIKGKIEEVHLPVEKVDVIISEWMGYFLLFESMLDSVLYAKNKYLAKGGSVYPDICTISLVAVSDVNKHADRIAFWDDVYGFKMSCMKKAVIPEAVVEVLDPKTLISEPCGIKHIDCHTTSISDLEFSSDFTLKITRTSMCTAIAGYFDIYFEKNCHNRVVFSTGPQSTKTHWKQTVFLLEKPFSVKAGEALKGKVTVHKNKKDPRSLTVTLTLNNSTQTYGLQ
Chain of SMYD2 (Q9NRG4 whole entry, species assumed): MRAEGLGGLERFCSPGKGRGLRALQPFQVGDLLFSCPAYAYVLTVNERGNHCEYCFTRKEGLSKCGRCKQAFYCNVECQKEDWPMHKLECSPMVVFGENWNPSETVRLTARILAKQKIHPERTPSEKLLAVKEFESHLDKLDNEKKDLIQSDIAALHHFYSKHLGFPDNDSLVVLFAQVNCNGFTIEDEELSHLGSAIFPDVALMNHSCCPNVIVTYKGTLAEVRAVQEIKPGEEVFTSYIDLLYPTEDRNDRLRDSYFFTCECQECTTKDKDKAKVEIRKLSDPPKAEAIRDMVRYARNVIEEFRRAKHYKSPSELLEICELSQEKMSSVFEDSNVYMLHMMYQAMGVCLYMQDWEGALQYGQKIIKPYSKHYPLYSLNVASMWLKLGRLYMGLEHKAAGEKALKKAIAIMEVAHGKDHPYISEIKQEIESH

Row | IC50 (NSD3) | IC50 (ESET) | IC50 (SMYD2) | IC50 (DNMT1) | IC50 (PRMT3) | Structure (SMILES)
1 | > 100 µM | > 100 µM | > 100 µM | > 100 µM | > 100 µM | Cc1cc(C)n(-c2cc(N3CCc4ccccc4C3)ccc2[N+](=O)[O-])n1 [EED666]
2 | > 100 µM | > 100 µM | > 100 µM | > 100 µM | > 100 µM | COc1ccccc1CN1CC(c2cn(C)c3ccccc23)C(N(C)C)C1 (stereo not shown) [EED709]

The next lines start with the compound.

Row | Structure (SMILES) | IC50 (NSD3) | IC50 (ESET) | IC50 (SMYD2) | IC50 (DNMT1) | IC50 (PRMT3)
3 | COc1cc(-c2cc3n(c(=N)c2C#N)CCc2cc4c(cc2-3)OCO4)ccc1OC(C)C [EED396] | > 100 µM | > 100 µM | > 100 µM | > 100 µM | > 100 µM
4 | N#Cc1c2c(c3nncn3c1NCc1ccco1)CN(Cc1ccccc1)CC2 [EED162] | > 100 µM | > 100 µM | > 100 µM | > 100 µM | > 100 µM
5 | COc1cccc(CC2CC3Cc4c(cccc4OC)CC3N(C)C2)c1 (stereo not shown) [EED210] | > 100 µM | > 100 µM | > 100 µM | > 100 µM | > 100 µM
